From PubChem BioAssay AID602191 (Broad Institute, 2012)
Active and inactive are the calls of the source.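 How the source made its calls: active means fitted curve reaches 40% activation at a concentration no higher than the top valid tested dose; inconclusive means flat fit between 30% and 70% activation, or poor fit; inactive means uptake decrease, flat fit within 30% of zero, the rest.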 Starred links: 1 amine or outer side, 2 acyl side, 3 side chain; linkers in the order of their positions; H or OH if unused. Non-standard residues stand in square brackets, D forms with d. Residues, ends and D or L forms follow the SMILES beside them. ξ: configuration not given here. X1 = CCCCCCC[C@H](O)C[C@@H](N[*:1])[C@@H](O)C(=O)[*:2]; X3 = COc1ccc(CCCC(N[*:1])C(=O)[*:2])cc1; ξThr(3R) = C[C@@H](O)C(N)C(=O)O; NMeN = CN[C@@H](CC(N)=O)C(=O)O; X2 = C/C=C(/N[*:1])C(=O)[*:2]; Dhb = C/C=C(\N)C(=O)O; Sar = CNCC(=O)O

The compounds below were run against Scavenger receptor class B member 1 (Mus musculus) (UniProt Q61009) (assay: enhancers of DiI-HDL lipid transfer via SR-BI – cell-based, ldlA[mSR-BI] CHO, DiI fluorescence, cherry-pick, dose response (AID 602191;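 further: cell fluorescence from internalized DiI-labeled HDL after washing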;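 on AC40: potency of activators raising HDL uptake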;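 on activation (HDL uptake increase): 0% = median of DMSO wells and 100% = twice the DMSO signal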)). Settings: ldlA[mSR-BI] CHO cells, 3 h, at 35 µM (top of the series).
Sequence of Scavenger receptor class B member 1 (Mus musculus) (Q61009 whole entry, looked up): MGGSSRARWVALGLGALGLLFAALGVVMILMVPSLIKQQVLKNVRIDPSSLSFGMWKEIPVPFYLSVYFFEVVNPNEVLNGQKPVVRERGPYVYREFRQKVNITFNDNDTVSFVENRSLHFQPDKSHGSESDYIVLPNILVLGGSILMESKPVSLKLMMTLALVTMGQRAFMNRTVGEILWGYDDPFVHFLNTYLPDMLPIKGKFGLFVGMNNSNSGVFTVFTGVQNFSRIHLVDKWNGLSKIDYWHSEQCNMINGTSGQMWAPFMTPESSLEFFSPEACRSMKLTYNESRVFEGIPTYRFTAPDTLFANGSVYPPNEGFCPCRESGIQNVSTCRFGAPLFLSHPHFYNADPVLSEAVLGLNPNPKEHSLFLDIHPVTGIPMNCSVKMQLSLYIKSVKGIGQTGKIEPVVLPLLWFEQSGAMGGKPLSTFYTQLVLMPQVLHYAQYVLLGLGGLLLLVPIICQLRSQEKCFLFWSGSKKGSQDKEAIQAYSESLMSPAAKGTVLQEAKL

Row | SMILES | activation (HDL uptake increase)
1 | CCCCn1c(=N)n(CCOc2ccc(C)cc2)c2ccccc21 | -6.96% (inactive)
2 | COc1ccc2c(CC(=O)NCC3CCC(C(=O)O)CC3)cc(=O)oc2c1 (configuration not stated) | 15.1% (inactive)
3 | NC(=O)C1CCN(C(=O)c2ccc(NS(=O)(=O)c3ccc(F)c(F)c3)cc2)CC1 | -2.55% (inactive)
4 | O=C(NCc1ccccc1)C1=C[C@H](c2coc3ccccc3c2=O)C[C@H](OCc2ccc(CO)cc2)O1 | -1.3% (inactive)
5 | CC(C)N1CCc2[nH]c(=S)[nH]c(=O)c2C1 | -0.502% (inactive)
6 | CC(C)C[C@H](NC(=O)c1nc[nH]c1C(=O)NC1CCN(C(=O)OC(C)(C)C)CC1)C(=O)OC(C)(C)C | -3.21% (inactive)
7 | CCOc1ccc(S(=O)(=O)NCCc2cn3ccccc3n2)cc1 | 2.16% (inactive)
8 | O=C(CNC(=O)c1ccco1)NCCCc1ccccc1 | -5.97% (inactive)
9 | C[C@@H]1CN([C@@H](C)CO)C(=O)Cc2cc(NC(=O)Nc3ccc(F)cc3)ccc2O[C@@H]1CN(C)Cc1ccc(Cl)c(Cl)c1 | 94.8% (inactive)
10 | CC1(C)NC(=O)N(CC(=O)N2CCN(S(=O)(=O)c3ccccc3C(F)(F)F)CC2)C1=O | -6.43% (inactive)
11 | CCOC(=O)C1CCCN(C(=S)Nc2cccc(Cl)c2C)C1 (configuration not stated) | -3.98% (inactive)
12 | Nc1nonc1-n1nnc(C(=O)N/N=C/c2cccs2)c1CSc1ccccc1 | -1.92% (inactive)
13 | Cc1nc(CCNC(=O)Cc2ccc(Cl)cc2)cs1 | -4.62% (inactive)
14 | CCC(C)(C)NC(=O)C(c1cccnc1)N(CCOC)C(=O)Cn1nnc2ccccc21 (configuration not stated) | -4.87% (inactive)
15 | CN1CCN(C(=O)C2CCN(S(=O)(=O)c3ccc4c(c3)oc(=O)n4C)CC2)CC1 | -0.287% (inactive)
16 | N#CCCN1CCN(S(=O)(=O)c2ccc(C3CCCCC3)cc2)CC1 | 12% (inactive)
17 | NNC(=O)CNC(c1ccccc1)c1cc(Br)ccc1NC(=O)CCN1CCOCC1 (configuration not stated) | -9.57% (inactive)
18 | CCc1nc(SCC(=O)Nc2ccc([N+](=O)[O-])cc2)n[nH]1 | -10.4% (inactive)
19 | COc1ccc(OC)c(NC(=O)c2c(NC(=O)CCC(=O)O)sc3c2CCCCC3)c1 | -20.2% (inactive)
20 | NCCCC[C@H]1CNC(=O)C(=O)N1CCc1cccc2ccccc12 | -5.05% (inactive)
21 | Cc1cccc(N2CCN(C(=S)c3ccc(-c4ccccc4[N+](=O)[O-])o3)CC2)c1 | -6.03% (inactive)
22 | CCOc1ccc(N(CC(=O)NC2CCCCCC2)S(=O)(=O)c2ccccc2)cc1 | 11.8% (inactive)
23 | CC1CCCC(NC(=O)CSc2nncs2)C1C (configuration not stated) | -4.42% (inactive)
24 | COc1cccc(OCc2cc(C(=O)NC3CCOCC3)no2)c1 | -16.2% (inactive)
25 | O=C(CCc1nc2ccccc2c(=O)[nH]1)N1CCN(c2ccccc2Cl)CC1 | -8.18% (inactive)

Second part, the compound after the results:

Row | activation (HDL uptake increase) | SMILES
26 | -0.472% (inactive) | COc1ccc2c(c1)C(C)(CCN)C(=O)N2C (configuration not stated)
27 | -5.38% (inactive) | COc1ccccc1C(=O)NC(=O)COC(=O)c1cccc(NC(C)=O)c1
28 | -13.4% (inactive) | Cc1ccc(-c2csc(=Nc3cccnc3)n2CCCN2CCCC2=O)cc1C
29 | -7.63% (inactive) | Cc1ccc(S(=O)(=O)N2CCOCC2)cc1C(=O)NCc1ccccc1CN1CCCC1
30 | -9.51% (inactive) | O=C(CCN1C(=O)c2ccccc2C1=O)C1=NN[C@@H]2C(=O)N(c3cccc(F)c3)C(=O)[C@H]12
31 | -5.05% (inactive) | O=C(CCC(=O)OCC(=O)c1ccc([N+](=O)[O-])cc1)Nc1ccccc1Cl
32 | 13.1% (inactive) | CC1Cc2cc(/C(O)=C3/C(=O)C(=O)N(CCN4CCOCC4)C3c3ccc([N+](=O)[O-])cc3)ccc2O1 (configuration not stated)
33 | -14.5% (inactive) | O=C(Nc1cccc(S(=O)(=O)NC2=NCCC2)c1)c1ccc(F)cc1F
34 | -9.94% (inactive) | Cc1ccccc1-n1nc2c(c1NC(=O)c1ccco1)CS(=O)(=O)C2
35 | -6.57% (inactive) | Cc1ccc(S(=O)(=O)CCC(=O)OCC(=O)Nc2cc(S(=O)(=O)N3CCOCC3)ccc2Cl)cc1
36 | -19.6% (inactive) | COc1ccc(Cn2c(N)c(S(=O)(=O)c3cccs3)c3nc4ccccc4nc32)cc1
37 | -4.92% (inactive) | COCCN(CC(=O)Nc1cc(Cl)ccc1-n1cncn1)Cc1nc2ccccc2c(=O)[nH]1
38 | 9.12% (inactive) | Cc1ccc(S(=O)(=O)NC(=O)Nc2nnc(C3CC3)s2)cc1
39 | -9.19% (inactive) | Cc1ccc(NC(=O)CSCC(N)=O)cc1C
40 | 4.99% (inactive) | Cc1ccc(CS(=O)Cc2ccc(C(=O)NCc3ccccc3)o2)cc1 (configuration not stated)
41 | 5.46% (inactive) | Cc1ccc(S(=O)(=O)N2CCC(=O)N(CCOCc3cccc(F)c3)CC2)cc1
42 | -13.2% (inactive) | CCn1c(COC(=O)CNC(=O)c2ccccc2)nc2cc(S(=O)(=O)N(C)C)ccc21
43 | 6.93% (inactive) | O=C(O)C1CCN(Cc2cnn(-c3ccccc3)c2-n2cccc2)CC1
44 | 17.6% (inactive) | CN(c1cccc(NC(=O)CN(c2ccc(C34CC5CC(CC(C5)C3)C4)cc2)S(C)(=O)=O)c1)S(C)(=O)=O
45 | 8.09% (inactive) | Cc1ccc(OCCC(=O)OCC(=O)NNC(=O)c2ccccc2)cc1
46 | -2.84% (inactive) | O=C(CCSc1nnc(-c2ccco2)o1)Nc1ccc(Cl)cc1
47 | -5.69% (inactive) | CC(C)C(C)(C#N)NC(=O)CSc1nnc(C(F)(F)F)n1C (configuration not stated)
48 | -9.31% (inactive) | Cc1c(C(=O)N(C)C(C)c2ccncn2)oc2c(F)cccc12 (configuration not stated)
49 | -10.4% (inactive) | CC(C)(C)SCCNC(=O)c1ccc(Cl)c([N+](=O)[O-])c1
50 | 39.2% (inactive) | CC(C)C[C@@H](CN1CCCC1CN1C(=S)NC[C@@H]1Cc1ccc(O)cc1)N1C[C@H](Cc2ccc(O)cc2)N(CCc2ccccc2)C1=S (some centres not stated)
51 | 6.23% (inactive) | O=C1[C@H]2[C@@H](c3ccc(F)cc3)N3C(=O)N(c4ccc(Br)cc4)C(=O)[C@@]3(Cc3ccccc3)[C@H]2C(=O)N1C1CCCCC1
52 | -4.26% (inactive) | CN(C)CCCNC(=O)/C=C/c1ccc2c(c1)OCO2
53 | -0.821% (inactive) | COc1ccc(N(CC(=O)NCCSc2ccccn2)S(=O)(=O)c2ccc(C)cc2)cc1OC
54 | 7.83% (inactive) | O=C1CCN(S(=O)(=O)c2ccccc2)CCN1CCOCc1cccc(F)c1

Same assay, conditions: ldlA[mSR-BI] CHO cells, DiI-HDL uptake fluorescence, 3 h

Row | AC40 | SMILES
55 | > 35 µM (inactive) | COc1ccc(CC(=O)N(C)Cc2ccc(C(C)(C)C)cc2)cc1S(=O)(=O)N1CCOCC1
56 | 28 µM | C/C=C1\NC(=O)[C@H](CC(N)=O)N(C)C(=O)C([C@@H](C)O)NC(=O)C(CCCc2ccc(OC)cc2)NC(=O)[C@H](C(C)C)NC(=O)/C(=C\C)NC(=O)[C@H](O)[C@@H](C[C@@H](O)CCCCCCC)NC(=O)[C@H](C)NC(=O)CN(C)C(=O)[C@H](CCC(N)=O)NC1=O (stereo partly drawn) (cyclo(A[X1][X2]V[X3][ξThr(3R)][NMeN][Dhb]Q[Sar]))
57 | > 35 µM (inactive) | COc1ccc(OC)c(S(=O)(=O)NCCCN2CCCC2=O)c1
